Measured values taken from ChEMBL document CHEMBL5120855, “Potent 2,3-dihydrophthalazine-1,4-dione derivatives as dual inhibitors for mono-ADP-ribosyltransferases PARP10 and PARP15” (Eur J Med Chem, 2022).

Tests used:
[1] = biological target: T1, Protein mono-ADP-ribosyltransferase PARP15 (Homo sapiens, UniProt Q460N3); experiment: Inhibition of human N-terminal 6His-tagged PARP15 (460 to 656 residues) expressed in Escherichia coli Rosetta2 (DE3) cells using NAD+ as substrate incubated for 10 mins by fluorescence based analysis
T1 sequence (Q460N3 whole entry): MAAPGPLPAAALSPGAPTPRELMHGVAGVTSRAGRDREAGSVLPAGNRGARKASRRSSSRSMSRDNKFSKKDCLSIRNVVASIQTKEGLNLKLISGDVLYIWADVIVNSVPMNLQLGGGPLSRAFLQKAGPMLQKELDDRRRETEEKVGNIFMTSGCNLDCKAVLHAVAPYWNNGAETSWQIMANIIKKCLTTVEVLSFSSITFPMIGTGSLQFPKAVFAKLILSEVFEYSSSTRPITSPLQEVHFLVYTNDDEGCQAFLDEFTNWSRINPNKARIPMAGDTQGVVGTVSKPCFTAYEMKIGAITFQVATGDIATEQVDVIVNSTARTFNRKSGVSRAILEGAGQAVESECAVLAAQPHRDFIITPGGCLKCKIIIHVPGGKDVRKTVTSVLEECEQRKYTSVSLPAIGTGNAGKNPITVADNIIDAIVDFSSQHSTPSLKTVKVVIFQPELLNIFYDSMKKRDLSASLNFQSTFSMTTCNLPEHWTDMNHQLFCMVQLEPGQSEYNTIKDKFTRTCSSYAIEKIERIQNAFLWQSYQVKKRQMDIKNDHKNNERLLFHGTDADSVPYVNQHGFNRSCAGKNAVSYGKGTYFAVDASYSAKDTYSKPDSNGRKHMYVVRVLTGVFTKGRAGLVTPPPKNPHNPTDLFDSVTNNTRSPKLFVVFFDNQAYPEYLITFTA

HeLa = experiment: Rescue of cell viability in human HeLa cells expressing wild type PARP10 at upto 10 uM incubated for 10 to 12 days by methylene blue dye based colony formation assay; format: functional
[2] = biological target: Protein mono-ADP-ribosyltransferase PARP14 (Homo sapiens, UniProt Q460N5); experiment: Inhibition of human PARP14 using NAD+ as substrate incubated for 10 mins by fluorescence based analysis
Chain of Protein mono-ADP-ribosyltransferase PARP14 (Q460N5 whole entry): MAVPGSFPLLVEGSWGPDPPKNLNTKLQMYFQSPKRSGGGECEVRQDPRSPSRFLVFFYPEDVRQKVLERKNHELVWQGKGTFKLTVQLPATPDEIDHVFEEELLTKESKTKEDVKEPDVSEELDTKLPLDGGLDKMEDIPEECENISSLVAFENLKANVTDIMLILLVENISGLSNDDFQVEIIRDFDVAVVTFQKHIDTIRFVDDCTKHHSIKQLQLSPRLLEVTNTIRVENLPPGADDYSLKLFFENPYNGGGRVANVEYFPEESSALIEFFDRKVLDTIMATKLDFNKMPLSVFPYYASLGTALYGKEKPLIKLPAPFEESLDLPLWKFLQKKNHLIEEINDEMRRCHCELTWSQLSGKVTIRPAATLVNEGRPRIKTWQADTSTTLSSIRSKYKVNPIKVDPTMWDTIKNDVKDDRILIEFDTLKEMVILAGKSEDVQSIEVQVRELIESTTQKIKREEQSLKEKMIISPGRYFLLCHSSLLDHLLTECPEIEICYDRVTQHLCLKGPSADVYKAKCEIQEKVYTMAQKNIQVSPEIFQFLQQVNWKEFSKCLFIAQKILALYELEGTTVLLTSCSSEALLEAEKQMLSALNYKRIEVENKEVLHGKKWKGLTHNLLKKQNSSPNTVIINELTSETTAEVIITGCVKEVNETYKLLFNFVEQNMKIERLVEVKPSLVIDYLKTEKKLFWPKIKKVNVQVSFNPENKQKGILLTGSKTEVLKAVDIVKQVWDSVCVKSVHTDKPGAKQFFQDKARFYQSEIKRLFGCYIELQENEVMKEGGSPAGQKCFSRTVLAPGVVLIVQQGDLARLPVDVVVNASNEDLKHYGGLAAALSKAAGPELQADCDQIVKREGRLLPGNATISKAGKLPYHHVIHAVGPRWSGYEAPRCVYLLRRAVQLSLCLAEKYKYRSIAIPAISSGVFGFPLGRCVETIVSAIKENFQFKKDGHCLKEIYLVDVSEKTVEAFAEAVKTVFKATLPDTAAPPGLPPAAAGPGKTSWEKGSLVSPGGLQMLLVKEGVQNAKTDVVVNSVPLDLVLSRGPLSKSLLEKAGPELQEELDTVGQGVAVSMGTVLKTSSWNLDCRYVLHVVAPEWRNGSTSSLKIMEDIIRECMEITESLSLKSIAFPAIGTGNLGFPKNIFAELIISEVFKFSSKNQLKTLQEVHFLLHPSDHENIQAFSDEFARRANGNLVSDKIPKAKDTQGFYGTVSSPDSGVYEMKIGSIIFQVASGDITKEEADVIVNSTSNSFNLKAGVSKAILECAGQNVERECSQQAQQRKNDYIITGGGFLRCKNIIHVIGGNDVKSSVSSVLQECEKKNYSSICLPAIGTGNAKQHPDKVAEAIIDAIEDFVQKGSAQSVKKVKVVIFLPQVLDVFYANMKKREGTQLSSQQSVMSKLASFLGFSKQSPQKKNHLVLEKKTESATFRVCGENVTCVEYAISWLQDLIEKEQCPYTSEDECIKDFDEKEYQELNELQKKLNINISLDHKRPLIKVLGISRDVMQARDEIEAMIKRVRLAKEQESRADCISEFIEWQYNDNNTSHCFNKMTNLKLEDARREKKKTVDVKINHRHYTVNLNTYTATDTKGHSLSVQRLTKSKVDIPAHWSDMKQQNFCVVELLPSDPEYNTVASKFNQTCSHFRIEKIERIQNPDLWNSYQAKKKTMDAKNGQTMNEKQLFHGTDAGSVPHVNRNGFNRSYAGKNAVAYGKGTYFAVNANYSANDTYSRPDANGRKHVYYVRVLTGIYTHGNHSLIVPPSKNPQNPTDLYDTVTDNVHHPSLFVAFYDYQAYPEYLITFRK

[3] = biological target: Poly [ADP-ribose] polymerase 2 (Homo sapiens, UniProt Q9UGN5); experiment: Inhibition of human PARP2 using NAD+ as substrate incubated for 10 mins by fluorescence based analysis
Chain of Poly [ADP-ribose] polymerase 2 (Q9UGN5 whole entry): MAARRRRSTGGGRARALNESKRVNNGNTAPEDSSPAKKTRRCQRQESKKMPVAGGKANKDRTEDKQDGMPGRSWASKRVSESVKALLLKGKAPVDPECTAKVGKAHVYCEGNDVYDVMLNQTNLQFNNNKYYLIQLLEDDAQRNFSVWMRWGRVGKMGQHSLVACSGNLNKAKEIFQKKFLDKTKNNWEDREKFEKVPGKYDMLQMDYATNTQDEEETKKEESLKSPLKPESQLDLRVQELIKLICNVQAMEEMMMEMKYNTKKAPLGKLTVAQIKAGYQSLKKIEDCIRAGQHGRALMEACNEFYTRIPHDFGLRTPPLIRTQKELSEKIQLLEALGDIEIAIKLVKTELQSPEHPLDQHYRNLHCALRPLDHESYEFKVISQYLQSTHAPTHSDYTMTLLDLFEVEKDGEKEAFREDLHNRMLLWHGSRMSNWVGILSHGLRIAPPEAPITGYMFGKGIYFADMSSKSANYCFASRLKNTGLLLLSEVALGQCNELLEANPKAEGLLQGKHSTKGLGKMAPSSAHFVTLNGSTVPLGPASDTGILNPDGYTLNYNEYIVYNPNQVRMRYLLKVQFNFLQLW

[4] = biological target: Protein mono-ADP-ribosyltransferase PARP4 (Homo sapiens, UniProt Q9UKK3); experiment: Inhibition of human PARP4
Chain of Protein mono-ADP-ribosyltransferase PARP4 (Q9UKK3 whole entry): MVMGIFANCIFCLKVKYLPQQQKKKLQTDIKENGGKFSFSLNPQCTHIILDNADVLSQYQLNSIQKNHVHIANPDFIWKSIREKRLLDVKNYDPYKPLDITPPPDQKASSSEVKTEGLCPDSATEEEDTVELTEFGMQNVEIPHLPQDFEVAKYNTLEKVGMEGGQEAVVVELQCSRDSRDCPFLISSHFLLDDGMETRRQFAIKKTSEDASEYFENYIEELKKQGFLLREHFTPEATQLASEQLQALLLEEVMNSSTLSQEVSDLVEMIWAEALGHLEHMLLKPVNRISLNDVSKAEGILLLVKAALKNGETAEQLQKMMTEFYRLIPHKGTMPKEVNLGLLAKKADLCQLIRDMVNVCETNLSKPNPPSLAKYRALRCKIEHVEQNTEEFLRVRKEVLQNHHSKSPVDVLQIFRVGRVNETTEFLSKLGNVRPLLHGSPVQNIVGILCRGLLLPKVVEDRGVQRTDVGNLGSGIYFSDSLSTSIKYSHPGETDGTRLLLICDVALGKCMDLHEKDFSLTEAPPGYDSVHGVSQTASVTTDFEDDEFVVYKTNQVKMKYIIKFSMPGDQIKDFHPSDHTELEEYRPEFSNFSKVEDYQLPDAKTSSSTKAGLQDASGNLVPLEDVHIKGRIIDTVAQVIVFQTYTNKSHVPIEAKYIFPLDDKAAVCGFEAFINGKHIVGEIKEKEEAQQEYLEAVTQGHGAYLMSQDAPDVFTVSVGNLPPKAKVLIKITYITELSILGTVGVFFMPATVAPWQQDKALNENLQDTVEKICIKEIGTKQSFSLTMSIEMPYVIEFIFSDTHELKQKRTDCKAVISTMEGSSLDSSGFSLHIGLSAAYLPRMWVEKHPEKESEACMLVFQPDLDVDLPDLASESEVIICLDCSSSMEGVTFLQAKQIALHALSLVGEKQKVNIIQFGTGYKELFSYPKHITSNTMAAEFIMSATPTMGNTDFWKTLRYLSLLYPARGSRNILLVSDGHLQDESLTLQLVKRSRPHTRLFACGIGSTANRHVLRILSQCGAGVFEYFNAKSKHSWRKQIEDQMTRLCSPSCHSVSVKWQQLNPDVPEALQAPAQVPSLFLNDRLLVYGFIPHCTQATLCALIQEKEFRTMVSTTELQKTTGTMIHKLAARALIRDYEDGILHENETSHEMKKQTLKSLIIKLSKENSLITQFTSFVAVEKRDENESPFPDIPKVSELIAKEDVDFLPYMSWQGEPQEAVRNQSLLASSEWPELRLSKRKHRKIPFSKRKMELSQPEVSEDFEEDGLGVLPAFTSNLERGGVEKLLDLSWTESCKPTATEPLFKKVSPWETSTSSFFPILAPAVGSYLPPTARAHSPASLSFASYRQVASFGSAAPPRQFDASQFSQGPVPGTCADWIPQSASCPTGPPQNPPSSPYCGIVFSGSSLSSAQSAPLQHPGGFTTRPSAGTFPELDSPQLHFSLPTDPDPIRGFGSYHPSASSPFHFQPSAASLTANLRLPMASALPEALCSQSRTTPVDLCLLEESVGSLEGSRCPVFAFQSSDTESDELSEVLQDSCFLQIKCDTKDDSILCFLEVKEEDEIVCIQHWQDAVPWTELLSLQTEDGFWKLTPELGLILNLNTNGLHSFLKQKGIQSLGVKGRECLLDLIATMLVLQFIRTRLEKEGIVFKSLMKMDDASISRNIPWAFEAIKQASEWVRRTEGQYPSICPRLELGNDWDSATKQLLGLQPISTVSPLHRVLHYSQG

[5] = biological target: T2, Poly [ADP-ribose] polymerase tankyrase-1 (Homo sapiens, UniProt O95271); experiment: Inhibition of human TNKS1
T2 sequence (O95271 whole entry): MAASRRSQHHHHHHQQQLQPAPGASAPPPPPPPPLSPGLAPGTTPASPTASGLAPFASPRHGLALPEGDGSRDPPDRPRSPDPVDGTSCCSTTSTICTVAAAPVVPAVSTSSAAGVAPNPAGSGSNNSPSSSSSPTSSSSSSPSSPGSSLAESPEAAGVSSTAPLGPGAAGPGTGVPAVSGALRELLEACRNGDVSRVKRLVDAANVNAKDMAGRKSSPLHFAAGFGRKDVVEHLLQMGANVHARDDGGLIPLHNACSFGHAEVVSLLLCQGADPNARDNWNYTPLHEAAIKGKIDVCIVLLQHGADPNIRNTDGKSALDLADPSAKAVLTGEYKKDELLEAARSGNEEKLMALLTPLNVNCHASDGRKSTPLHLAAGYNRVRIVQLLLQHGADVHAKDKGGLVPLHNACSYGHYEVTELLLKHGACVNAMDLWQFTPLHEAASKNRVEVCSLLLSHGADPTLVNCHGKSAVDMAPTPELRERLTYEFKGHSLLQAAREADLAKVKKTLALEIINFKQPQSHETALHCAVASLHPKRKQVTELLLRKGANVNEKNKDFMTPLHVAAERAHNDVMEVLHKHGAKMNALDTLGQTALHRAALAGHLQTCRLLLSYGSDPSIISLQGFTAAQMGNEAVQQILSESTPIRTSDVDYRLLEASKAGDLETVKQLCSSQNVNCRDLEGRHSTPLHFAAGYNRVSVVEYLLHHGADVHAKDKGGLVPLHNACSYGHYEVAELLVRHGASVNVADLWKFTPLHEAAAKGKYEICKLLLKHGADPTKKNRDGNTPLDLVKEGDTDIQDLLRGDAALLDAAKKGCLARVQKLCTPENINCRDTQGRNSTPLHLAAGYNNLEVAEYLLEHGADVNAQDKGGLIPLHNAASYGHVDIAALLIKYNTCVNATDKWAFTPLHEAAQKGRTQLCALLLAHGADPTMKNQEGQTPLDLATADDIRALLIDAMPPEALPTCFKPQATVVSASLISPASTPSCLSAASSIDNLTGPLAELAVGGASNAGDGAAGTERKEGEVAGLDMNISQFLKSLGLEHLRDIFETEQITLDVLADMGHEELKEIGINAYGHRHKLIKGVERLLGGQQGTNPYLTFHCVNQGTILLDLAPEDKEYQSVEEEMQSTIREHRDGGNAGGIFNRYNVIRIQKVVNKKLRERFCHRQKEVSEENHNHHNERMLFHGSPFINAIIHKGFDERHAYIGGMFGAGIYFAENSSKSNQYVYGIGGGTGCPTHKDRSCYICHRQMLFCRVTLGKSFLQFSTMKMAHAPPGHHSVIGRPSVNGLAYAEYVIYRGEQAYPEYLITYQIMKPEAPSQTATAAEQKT

[6] = biological target: Poly [ADP-ribose] polymerase 1 (Homo sapiens, UniProt P09874); experiment: Inhibition of human PARP-1 using NAD+ as substrate incubated for 10 mins by fluorescence based analysis
Chain of Poly [ADP-ribose] polymerase 1 (P09874 whole entry): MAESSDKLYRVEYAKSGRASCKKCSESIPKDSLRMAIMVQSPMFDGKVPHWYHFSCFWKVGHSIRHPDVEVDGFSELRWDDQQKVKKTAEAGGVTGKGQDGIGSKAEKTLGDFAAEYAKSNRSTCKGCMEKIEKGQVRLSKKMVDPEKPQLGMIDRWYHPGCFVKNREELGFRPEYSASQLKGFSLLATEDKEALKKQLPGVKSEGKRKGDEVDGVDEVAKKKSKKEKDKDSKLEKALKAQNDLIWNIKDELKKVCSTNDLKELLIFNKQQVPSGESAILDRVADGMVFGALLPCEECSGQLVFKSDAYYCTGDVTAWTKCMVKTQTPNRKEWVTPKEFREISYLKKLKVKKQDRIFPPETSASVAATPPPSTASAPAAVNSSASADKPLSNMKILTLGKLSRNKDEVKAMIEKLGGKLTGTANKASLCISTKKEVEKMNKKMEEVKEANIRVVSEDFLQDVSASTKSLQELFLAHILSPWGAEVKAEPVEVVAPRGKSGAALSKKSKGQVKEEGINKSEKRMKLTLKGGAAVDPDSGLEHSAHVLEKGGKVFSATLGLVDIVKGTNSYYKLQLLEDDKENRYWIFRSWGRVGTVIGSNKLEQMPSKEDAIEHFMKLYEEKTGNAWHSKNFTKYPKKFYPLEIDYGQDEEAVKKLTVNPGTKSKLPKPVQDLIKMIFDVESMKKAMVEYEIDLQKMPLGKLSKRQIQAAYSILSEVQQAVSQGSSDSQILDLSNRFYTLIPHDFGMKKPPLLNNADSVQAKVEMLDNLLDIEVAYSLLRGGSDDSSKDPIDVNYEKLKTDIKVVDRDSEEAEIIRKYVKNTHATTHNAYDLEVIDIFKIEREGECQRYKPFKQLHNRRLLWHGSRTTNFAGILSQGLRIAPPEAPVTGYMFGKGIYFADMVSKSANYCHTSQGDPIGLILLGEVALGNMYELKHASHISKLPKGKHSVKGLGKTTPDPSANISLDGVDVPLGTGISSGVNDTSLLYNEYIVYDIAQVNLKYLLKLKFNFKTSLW

[7] = biological target: T3, Protein mono-ADP-ribosyltransferase PARP3 (Homo sapiens, UniProt Q9Y6F1); experiment: Inhibition of human PARP3
T3 sequence (Q9Y6F1 whole entry): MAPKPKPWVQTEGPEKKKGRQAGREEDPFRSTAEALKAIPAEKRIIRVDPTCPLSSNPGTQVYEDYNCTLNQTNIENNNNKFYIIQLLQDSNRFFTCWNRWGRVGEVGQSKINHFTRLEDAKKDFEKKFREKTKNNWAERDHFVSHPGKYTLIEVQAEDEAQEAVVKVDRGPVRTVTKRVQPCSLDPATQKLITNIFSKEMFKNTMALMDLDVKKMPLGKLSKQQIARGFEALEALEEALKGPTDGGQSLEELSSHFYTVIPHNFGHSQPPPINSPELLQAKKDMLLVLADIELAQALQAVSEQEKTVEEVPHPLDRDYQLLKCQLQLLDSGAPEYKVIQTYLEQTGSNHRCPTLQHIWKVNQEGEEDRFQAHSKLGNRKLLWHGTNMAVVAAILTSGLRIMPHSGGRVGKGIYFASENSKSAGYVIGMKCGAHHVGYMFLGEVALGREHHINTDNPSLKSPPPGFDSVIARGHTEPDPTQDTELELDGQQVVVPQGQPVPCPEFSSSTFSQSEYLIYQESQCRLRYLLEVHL

NC(=O)c1ccc(OCC2CCC2)cc1
IC50 [1]: 2400 nM
EC50 (HeLa): 590 nM
IC50 [2]: > 10 µM
IC50 [3]: 38 µM
IC50 [4]: > 100 µM
IC50 [5]: > 100 µM
IC50 [6]: > 100 µM
IC50 [7]: > 100 µM
